Measurements reported in US8324166B2, “Neuroprotection using NAP-like and SAL-like peptide mimetics” (Ramot at Tel-Aviv University, Ltd., priority 2007, dated 2012).
Where “and” joins values, the source holds several entries; their conditions need not be identical. Identical values can stand only once. Entries after “also recorded” stand apart in the source; their conditions may differ.

Assays:
[1] = system: neurons in mixed neuroglial cultures intoxicated with beta-amyloid 1-42; assay: MAP2 assay: neuronal survival in mixed neuroglial cultures following beta-amyloid intoxication; type: cell-based, rat
Method: Newborn rats were used to prepare cerebral cortical astrocytes cell cultures as described above. After suspending the cells in D1, they were centrifuged at 100 g for 5 minutes and the supernatant discarded. The cell pellet was resuspended in solution D2 containing 5% heat inactivated horse serum (Biological Industries, Beit Haemek, Israel), 0.1% gentamycin, 0.1% penicillin-streptomycin-nystatin, 1% N3 (defined medium components essential for neuronal development in culture, (Romijn HJ, Brain Res., 254:583-9 (1981)]), 15 μg/ml 5′-fluoro-2-deoxyuridine (FUDR, Sigma, Rehovot, Israel), and 3 μg/ml uridine (Sigma, Rehovot, Israel) in DMEM. Cells were counted in a hemocytometer, diluted in D2 and 17,000 cells/well/96 well plate were seeded on 8-day-old astrocytes prepared as described above. The medium was changed the next day to D2 without FUDR and uridine. Cells were allowed to grow for one week at 37° C. 10% CO2 before experiments were performed.
Neuronal survival in neuroglial cultures following beta-amyloid intoxication was assayed using the neuron specific antibody, MAP2. […] The cells were incubated for 5 days in 10% CO2 at 37°C.
5 days after the addition of beta-amyloid and the peptide, the cells were fixed by removing the media from each well and the addition of cold methanol. The cells were left in the refrigerator overnight. The cells were immunostained with anti-MAP2 as previously described (Brooke S M et al., Neurosci. Lett., 267:21-4(1999)): the methanol was removed and the cells were washed 4 times with phosphate buffered saline (PBS). Blocking for non-specific antibody binding was performed by incubating the cells in 5% non-fat milk in PBS overnight at 4° C. The blocking solution was then removed and anti-MAP2(1:1000; Sigma, Rehovot, Israel) was added to each well. The cells were incubated for 30 minutes at room temperature, followed by 4 washes with PBS. Biotinylated anti-mouse IgG (1:200, Vector Laboratories, Burlingame, Calif., USA) was then added to each well, and the cells were incubated for 30 minutes at room temperature followed by 4 washes with PBS. The cells were incubated at room temperature for 30 minutes with the ABC reagent (Vector Laboratories, Burlingame, Calif., USA) prepared according to the manufacturer's protocol and then washed 4 times with PBS. ABTS reagent, prepared according to the manufacturer's protocol (Vector Laboratories, Burlingame, Calif., USA) was then added to each well and the cells were incubated for 20 minutes in the dark at room temperature. The plates were read in an ELISA plate reader at 405nm. As blanks, wells containing untreated cells and no primary antibody were used.

[2] = system: cerebral cortical astrocytes intoxicated with ZnCl2; assay: MTS assay: survival of astrocytes following intoxication with ZnCl2; type: cell-based, mice
Method: Cell cultures were prepared as previously described (McCarthy KD, de Vellis J., J. Cell Biol., 85:890-902 (1980); Gozes I et al., J. Pharmacol. Exp. Ther., 257:959-66 (1991)). Newborn mice (Harlan Biotech Israel Ltd., Rehovot, Israel) were sacrificed by decapitation and the brain was removed. The cortex was dissected and meninges were removed. The tissue was minced with scissors and placed in Hank's balanced salts solution X1 (HBSS, Biological Industries, Beit Haemek, Israel), 15 mM HEPES Buffer pH 7.3 (Biological Industries, Beit Haemek, Israel) and 0.25% trypsin (Biological Industries, Beit Haemek, Israel) in an incubator at 37° C. 10% CO2 for 20 minutes. The cells were then placed in 8 ml of solution D1 containing 10% heat inactivated fetal calf serum (Biological Industries, Beit Haemek, Israel), 0.1% gentamycin sulphate solution (Biological Industries, Beit Haemek, Israel) and 0.1% penicillin-streptomycin-nystatin solution (Biological Industries, Beit Haemek, Israel) in Dulbecco's modified Eagle's medium (DMEM, Sigma, Rehovot, Israel). The cells were allowed to settle, and were then transferred to a new tube containing 2.5 ml of D1 and triturated using a Pasteur pipette. The process was repeated twice more. Once all the cells were suspended, cell density was determined using a hemocytometer (Neubauer improved, Germany) and 1×10^6 cells/15 ml D1 were inoculated into each 75 cm^2 flask (Corning, Corning, N.Y., USA). Cells were incubated at 37° C. 10% CO2. The medium was changed after 24 hours and cells were grown until confluent (one week).
The flasks containing the cerebral cortical astrocytes were shaken to dislodge residual neurons and oligodendrocytes that may be present. Flasks were then washed with 10 ml cold HBSSx1, HEPES15 mM. 5 ml versene-trypsin solution (BioLab, Jerusalem, Israel) was added to each flask and the flasks were incubated at room temperature for 5 minutes to remove astrocytes. The flasks were then shaken to dislodge the cells. The versene-trypsin solution was neutralized with 5 ml D1. The cell suspension was collected and centrifuged at 100 g for 10 minutes. The supernatant was removed and the cells resuspended in D1. The cells were plated in 96 well plates (Corning, Corning, N.Y., USA) (each flask to 2 plates) and incubated until confluent at 37° C. 10% CO2.
The survival of astrocytes following intoxication with ZnCl2 was tested using the MTS assay. One week after sub-culturing the astrocytes into 96-well plates, the astrocyte growth medium was aspirated and fresh medium containing 200μM ZnCl2 and ascending concentrations of NATLSHIHQ (SEQ ID NO:4) or STPTAIPQ (SEQ ID NO:6)(concentration range: 10^−16-10^−7M) was added to the cells. The cells were incubated for 4 hours in 10% CO2 at 37°C., followed by an MTS assay using Celltiter 96 Aqueous non-radioactive cell proliferation assay (Promega, Madison, WI, USA) which was performed according to the manufacturer's instructions and read in an ELISA plate reader at 490nm.

[3] = system: rTg(tauP301L)4510 mouse (Tau-Tg); assay: Brain-Body weight ratio in Tau transgenic mice; type: in vivo
Method: The experiment included three groups: Tau-Tg female mice, 10-month-old, treated by intranasal administration of NAT 2 μg/5 μl/mouse/day (n=5) or vehicle (SW/mouse/day) (n=6), and as control, non-Tg female littermates treated by vehicle (SW/mouse/day) (n=7).
Treatment started at 9 months of age and continued daily for a period of 5 weeks. At each test NAT was applied 1 h before the test begun.
All mice were weighed at the beginning and end of the experiment and whole brain weight was measured before the brain dissection.
All mice were weighed before first drug application and again before the dissection (while still alive). […] Whole brain was weighed before the brain sections were separated and no significant statistical differences between the groups were found. However, Brain-Body weight ratio may be used to measure brain mass decrease possibly indicating neuronal degradation (Bassan et al., (2009) J Matern Fetal Neonatal Med, 1-6).

## NATLSIHQ (synthetic NAP-like peptide)
[1]; MAP2 assay, 5 days, tested 10^−19M to 10^−5M, significance vs negative control in cell
  effective concentrations on neuronal survival: Neurons (25 μM beta-amyloid): 10^−19 M and 10^−15 M and 10^−17 M and 10^−13 M
[1]; neuroglial cells, beta-amyloid
  activity in neuroprotection assay: active
[1]; survival of neuroglial cells
  efficacy compared between peptides: greater than that of STPTAIPQ
[2]; MTS assay, 4 hours, tested 10^−16-10^−7M, significance vs negative control in cell
  effective concentrations on astrocyte survival: Astrocytes (200 μM ZnCl2): 10^−12 M and 10^−8 M and 10^−7 (p < 0.0005) M and 10^−10 (p < 0.05) M
[2]; astrocytes, ZnCl2
  activity in neuroprotection assay: active
[2]; survival of astrocytes
  efficacy compared between peptides: greater than that of STPTAIPQ
[3]; TAU-Tg mice, intranasal NAT, listed as NAT
  protection from neurodegeneration (Brain-Body weight ratio): protected the brain from neurodegeneration; also recorded: protective effect
[3]; TAU-Tg+NAT, intranasal daily 5 weeks, mean and S.E., p=0.030 vs vehicle treated TAU-Tg
  Brain-Body weight ratio: 0.0148+0.0009
